Source: patent publication US9012365B2, “Compatibility agents for herbicidal formulations comprising 2,4-(Dichlorophenoxy) acetic acid salts” (priority 2006, dated 2015)
Several values for one entry are separate records, joined by “and”; a condition that tells them apart may be missing. Identical values can stand only once.

Test: Appearance of 10 g solution of (2.5 wt % ai 2,4-D DMA + tested chemical) after adding 40% AMS
Format: physicochemical
Conditions: 2.5 wt % ai 2,4-D DMA; for Addition Weight of 40% AMS: System was cloud after adding / Addition Weight of 40% AMS: System was clear after adding: 10 g solution
Description: In this example, the appearance of a 10 g solution of (2.5 wt % ai 2,4-D DMA+tested chemical) was evaluated after adding 40% AMS

[1] = 0.13 wt % a.i. of tested chemical, 0 gram 40% AMS
[2] = 0.13 wt % a.i. of tested chemical
[3] = 1.25 wt % a.i. of tested chemical
[4] = 0.04 wt % a.i. of tested chemical

Compound	0 gram Appearance [1]	Addition Weight of 40% AMS: System was cloud after adding [2]	Addition Weight of 40% AMS: System was clear after adding [2]	further results
2-propylheptanol-5 EO	Clear	0.633 grams	–	–
2-propylheptanol-8EO	Clear	0.526 grams	0.43 grams	–
CCCCOCCOC(C)=O [Butyl cellosolve Acetate (C4—O—C—C—OOCC), Butyl cellosolve Acetate]	Clear	0.324 grams	0.162 grams	–
CCCCCCCCCCCC[N+](C)(C)CC(=O)[O-] [Lauryldimethyl betaine]	–	–	–	0 gram Appearance [3]: Clear; Addition Weight of 40% AMS: System was clear after adding [3]: 0.693 grams; Addition Weight of 40% AMS: System was cloud after adding [3]: 0.913 grams
CCCCCCCCCCCCOS(=O)(=O)[O-].[Na+] [Sodium lauryl sulfate]	–	–	–	0 gram Appearance [4]: Clear; Addition Weight of 40% AMS: System was cloud after adding [4]: 0.101 grams
Alkyl ether citrate	Clear	0.509 grams	–	–
C6-10 isopropylamine alcohol ether sulfate	Clear	0.712 grams	0.528 grams	–
C8-10 + 4 EO phosphate ester (acid)	Clear	0.488 grams	–	–
C8-10 glycosides [AG 6210]	Clear	1.212 grams	1 grams	–
C9-C11 glycoside	Clear	0.272 grams	–	–
C10-12 alcohol ethoxylate (5EO)	Clear	1.226 grams	1.035 grams	–
C10-12 alcohol ethoxylate (9EO)	Clear	0.72 grams	0.519 grams	–
C10-12 alcohol ethoxylate (12EO)	Clear	0.669 grams	0.619 grams	–
Castor oil ethoxylate	very cloudy	0 grams	very cloudy	–
Cocamide DEA	Clear	0.987 grams	0.701 grams	–
Cocoamine-2EO oxide	Clear	0.096 grams	–	–

Further lines, with some results ahead:

0 gram Appearance [1]	Addition Weight of 40% AMS: System was cloud after adding [2]	Addition Weight of 40% AMS: System was clear after adding [2]	Compound	further results
Clear	0.226 grams	–	2-ethylhexyl glycoside	–
Clear	0.217 grams	–	C8-10 glycosides [Agnique PG 8166]	–
Clear	1.033 grams and 1.026 grams	0.829 grams and 0.903 grams	C10-12 alcohol ethoxylate (7EO)	–
Clear	0.918 grams	0.819 grams	C11 alcohol ethoxylate (5EO)	–
Clear	0.521 grams	0.279 grams	Castor oil ethoxylate-20EO	–
Clear	4.058 grams	3.521 grams	Coco duoamine-3EO	–
Clear	1.633 grams	1.478 grams	Cocoamine-5EO	–
